Test results: patent publication US20040072211A1, “Methods for identifying ligands using waterlogsy NMR” (PHARMACIA & UPJOHN COMPANY, priority 2002, published 2004)
Where two headings read alike, the source gives them in different places. One block for each molecule: values may come before it.

How the values were obtained:
[1] = molecular target: Human Serum Albumin (HSA) site II (Homo sapiens, UniProt P02768); settings: literature knowledge; cited from earlier work
[2] = molecular target: T1, Human Serum Albumin (HSA) (Homo sapiens, UniProt P02768); test: biochemical; settings: for Interaction with HSA by ITC binding heat effects: 30 μM protein, 1.5 mM ligand
Experimental: FIG. 3. Isothermal titration calorimetry (ITC) data measured on the binding of tryptophan analogues to HSA. […] Dilution heats were collected in blank titrations and were subtracted from the data. […] The solid line represents a calculated curve using the best-fit parameters obtained by a nonlinear least-squares fit to the measured data.
ITC Experiments. […] Heats of dilution were measured in blank titrations by injecting the […] into the buffer used in the particular experiment and were subtracted from the binding heats. Thermodynamic parameters were determined by non-linear least squares methods using routines included in the Origin software package (MicroCal).

[3] = molecular target: T1, Human Serum Albumin (HSA); test: One-dimensional WaterLOGSY NMR spectra of methyl-tryptophan derivatives with HSA; type: binding; parameters: purchased Sigma A-3782; settings: 50 μM compound, 5 μM HSA, PBS pH 7.4, 293 K
Experimental: FIG. 2. […] Positive and negative signals identify HSA binding and noninteracting molecules, respectively.
Diazepam was purchased from Carlo Erba. The NMR samples were in phosphate buffered saline (PBS) buffer (Sigma) pH 7.4. D2O was added to the solutions (8% final concentration) for the lock signal.
(§1) NMR Experiments. […] For each sample a reference spectrum and a ID WaterLOGSY spectrum were recorded. […] The 1st water selective 180° pulse was 25 milliseconds (ms) long. A weak rectangular PFG is applied during the entire length of the mixing time (1.5 seconds (s)). A short gradient recovery time of 2 ms was introduced at the end of the mixing time before the detection pulse. […] The gradient recovery time was 0.2 s. […] Prior to Fourier transformation the data were multiplied with an exponential function with a line broadening of 1 Hz.
Therefore in an effort to identify a potential reference molecule, three methyl-tryptophan derivatives, namely 5-CH3, 6-CH3, and 7-CH3 Trp, were selected.

[4] = molecular target: T1, Human Serum Albumin (HSA); test: c-WaterLOGSY competition binding experiment, displacement of reference compound 6-CH3 Trp from HSA; parameters: purchased Sigma A-3782
Experimental: as §1

T1 sequence (P02768 25-609): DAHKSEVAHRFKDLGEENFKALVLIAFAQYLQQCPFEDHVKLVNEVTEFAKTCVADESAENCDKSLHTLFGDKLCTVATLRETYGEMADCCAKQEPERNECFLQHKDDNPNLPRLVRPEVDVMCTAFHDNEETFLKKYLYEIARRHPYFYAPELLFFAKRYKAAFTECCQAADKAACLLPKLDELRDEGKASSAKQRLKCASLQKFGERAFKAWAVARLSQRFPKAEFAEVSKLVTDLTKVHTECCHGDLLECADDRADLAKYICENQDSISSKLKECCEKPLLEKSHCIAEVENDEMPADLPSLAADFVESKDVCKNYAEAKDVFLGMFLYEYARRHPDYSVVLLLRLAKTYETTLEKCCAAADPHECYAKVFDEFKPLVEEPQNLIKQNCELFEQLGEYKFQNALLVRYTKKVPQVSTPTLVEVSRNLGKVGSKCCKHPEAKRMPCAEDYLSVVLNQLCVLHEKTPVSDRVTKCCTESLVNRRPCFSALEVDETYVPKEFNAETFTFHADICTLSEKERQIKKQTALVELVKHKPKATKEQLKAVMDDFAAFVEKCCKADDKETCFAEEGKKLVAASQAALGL
Chain of Human Serum Albumin (HSA) site II (P02768 25-609): as above

Interaction with HSA by ITC binding heat effects ([2]; PBS, 298 K): No net binding heat effects
Interaction with HSA by sign of WaterLOGSY signal (positive = binding, negative = noninteracting) [3]: do not interact with the protein
Signal intensity change of the 6-CH3 Trp reference WaterLOGSY signal in presence of the competitor ([4]; 10 μM competitor, 50 μM 6-CH3 D,L Trp, 5 μM HSA): No signal intensity change
Structure (SMILES): Cc1cccc2c(CC(N)C(=O)O)c[nH]c12 (racemic) [7-CH3 Trp, 7-CH3-D,L-Trp]

Signal intensity change of the 6-CH3 Trp reference WaterLOGSY signal in presence of the competitor [4]: No signal intensity change
Structure (SMILES): OC[C@H]1O[C@@](CO)(O[C@H]2O[C@H](CO)[C@@H](O)[C@H](O)[C@H]2O)[C@@H](O)[C@@H]1O [Sucrose]

The next lines start with the molecule.

Structure (SMILES): N[C@@H](Cc1c[nH]c2ccccc12)C(=O)O [tryptophan]
Binding site on HSA [1]: binds also on site II of HSA

Structure (SMILES): Cc1ccc2c(CC(N)C(=O)O)c[nH]c2c1 (racemic) [6-CH3 Trp, 6-CH3-D,L-Trp]
Kd [2]: 37 µM
association binding constant (KB) [2]: 2.7±0.2 10^4 Mol^−1
Interaction with HSA by ITC binding heat effects ([2]; PBS, 298 K): negative binding heats were observed
ΔH^obs ([2]; ITC, 298 K, PBS): 1.9 ± 0.1 kcal/mol
ΔS ([2]; ITC, 298 K, PBS): 13.79 cal/(mol K)
Interaction with HSA by sign of WaterLOGSY signal (positive = binding, negative = noninteracting) [3]: ligand for HSA

Structure (SMILES): Cc1ccc2[nH]cc(CC(N)C(=O)O)c2c1 (racemic) [5-CH3 Trp, 5-CH3-D,L-Trp]
Interaction with HSA by ITC binding heat effects ([2]; PBS, 298 K): No net binding heat effects
Interaction with HSA by sign of WaterLOGSY signal (positive = binding, negative = noninteracting) [3]: do not interact with the protein
